Converted amounts (≈) assume the structure as drawn. Where a SMILES comes first, the peptide text is derived from it. [ ]: non-standard residue; d: D form. The star is where a group is joined. ξ: configuration not given here. Octanoyl(7-Me) = CC(C)CCCCCC(=O)*; Hexanoyl(4ξ-Me) = CCC(C)CCC(=O)*; dOrn = NCCC[C@@H](N)C(=O)O; Orn = NCCC[C@H](N)C(=O)O; Dap = NC[C@H](N)C(=O)O; Alloc = C=CCOC(=O)*
Key:
[1] = test system: P. aeruginosa PAO1; type: cell-based, Pseudomonas aeruginosa; details: microbroth dilution per CLSI, MHB, 18 h at 37 °C, visual inspection, three technical replicates
Procedure, shortened: (§1)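 CLSI broth microdilution in MHB, polypropylene plates; log-phase bacteria (OD600 ~0.5, grown in TSB, with kanamycin for the E. coli ATCC 25922 MCR-1 strain) added at 2 × 10^5 CFU/mL. Read visually after 18 h at 37 °C with shaking; MIC = lowest concentration preventing visible growth, three technical replicates.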

[2] = test system: E. coli ATCC 25922; type: cell-based, Escherichia coli; details: for Antibacterial activity (MIC) E. coli ATCC 25922: microbroth dilution per CLSI, MHB, 18 h at 37 °C, visual inspection, three technical replicates; for MIC (µg/mL) against E. coli (ATCC 25922): (Supplement 2)
Procedure, shortened: as §1

[3] = test system: E. coli (MCR-1); type: cell-based, Escherichia coli; details: microbroth dilution per CLSI, MHB, 18 h at 37 °C, visual inspection, three technical replicates, E. coli 25922 carrying mcr-1
Procedure, shortened: as §1

[4] = test system: panel of Gram-negative and Gram-positive ESKAPE pathogens; type: cell-based; details: for fold improvement in activity with respect to C-terminal acids 4 and 5: MIC of C-terminal amide vs C-terminal acid; for fold reduction in activity compared to parent peptides: MIC vs brevicidine / laterocidine; for MIC values, summarised over strains: against most strains of the panel
Protocol: Linear laterocidine (LL-OH, 4) and linear brevicidine (LB-OH, 5) were first synthesized by Fmoc SPPS, starting from 2-chlorotrityl (2-CT) chloride resin. The antibacterial activity of these peptides was then compared to brevicidine (1) and laterocidine (2) using minimum inhibitory concentration (MIC)/microbroth dilution assays (Table 1). The MICs of all peptides were determined against a panel of Gram-negative and Gram-positive ESKAPE pathogens. Additionally, a strain of E. coli carrying the mcr-1 gene was included in the panel. The mcr-1 gene is a transferrable plasmid that confers resistance against colistin, a last-resort antibiotic for Gram-negative infections, by reducing the overall negative charge of lipopolysaccharide (LPS) through modification of lipid A with phosphoethanolamine. The propensity for cationic antibiotics to bind to the cell membrane is therefore reduced. This gene has been observed in more than 27 bacterial species over six continents.[26] The spread of the mcr-1 gene could render colistin ineffectual; therefore, novel antibacterials are urgently required to overcome this form of resistance.
All minimum inhibitory concentrations (MICs) were determined according to Clinical and Laboratory Standards Institute (CLSI) guidelines. Blood agar plates were inoculated with glycerol stocks of E. coli ATCC 25922, K. pneumoniae ATCC 13883, A. baumannii ATCC 17961, P. aeruginosa PAO1, and S. aureus USA300. The inoculated agar plates were then incubated for 16 h at 37 °C. Individually grown colonies were subsequently used to inoculate 5 mL aliquots of TSB that were then incubated at 37 °C with shaking at 220 rpm. E. coli 25922 MCR-1 glycerol stock was used to inoculate 5 mL of TSB supplemented with kanamycin that was then incubated for 16 h at 37 °C with shaking at 220 rpm. The next day the culture was diluted 100-fold in TSB supplemented with kanamycin and incubated at 37 °C with shaking at 220 rpm. In parallel, the lipopeptide antibiotics DMSO stocks to be assessed were serially diluted with MHB in polypropylene 96-well plates (50 μL in each well). Colistin sulfate stocks were dissolved in water before being diluted with MHB. Aliquots of the inoculated TSB were incubated until an OD600 of around 0.5 was reached. The bacterial suspensions were then diluted with MHB (2 × 10^5 CFU/mL) and added to the microplates containing the test compounds (50 μL to each well). The well plates were sealed with an adhesive membrane and after 18 h of incubation at 37 °C with shaking at 600 rpm, the wells were visually inspected for bacterial growth. MIC values reported are based on three technical replicates and defined as the lowest concentration of the compound that prevented visible growth of bacteria.

[5] = test system: K. pneumoniae ATCC 13883; type: cell-based, Klebsiella pneumoniae; details: microbroth dilution per CLSI, MHB, 18 h at 37 °C, visual inspection, three technical replicates
Procedure, shortened: as §1

[6] = test system: S. aureus USA300; type: cell-based, Staphylococcus aureus; details: microbroth dilution per CLSI, MHB, 18 h at 37 °C, visual inspection, three technical replicates
Procedure, shortened: as §1

[7] = test system: A. baumannii ATCC 17961; type: cell-based, Acinetobacter baumannii; details: microbroth dilution per CLSI, MHB, 18 h at 37 °C, visual inspection, three technical replicates
Procedure, shortened: as §1

| Structure (SMILES) | Antibacterial activity (MIC) P. aeruginosa PAO1 [1] [µg/mL] | Antibacterial activity (MIC) E. coli ATCC 25922 [2] [µg/mL] | Antibacterial activity (MIC) E. coli (MCR-1) [3] [µg/mL] | fold improvement in activity with respect to C-terminal acids 4 and 5 [4] [fold] | fold reduction in activity compared to parent peptides [4] | Antibacterial activity (MIC) K. pneumoniae ATCC 13883 [5] [µg/mL] | Antibacterial activity (MIC) S. aureus USA300 [6] [µg/mL] | Antibacterial activity (MIC) A. baumannii ATCC 17961 [7] [µg/mL] | MIC (µg/mL) against E. coli (ATCC 25922) [2] [µg/mL] | MIC values, summarised over strains [4] [µg/mL] |
| --- | --- | --- | --- | --- | --- | --- | --- | --- | --- | --- |
| CCC(C)CCC(=O)N[C@H](CC(N)=O)C(=O)N[C@H](Cc1ccc(O)cc1)C(=O)N[C@H](Cc1c[nH]c2ccccc12)C(=O)N[C@H](CCCN)C(=O)N[C@@H](CCCN)C(=O)NCC(=O)N[C@H](CCCN)C(=O)N[C@@H](Cc1c[nH]c2ccccc12)C(=O)N[C@H](C(=O)N[C@H](C(=O)NCC(=O)N[C@@H](CO)C(N)=O)[C@@H](C)CC)[C@@H](C)O (some centres unmarked) [LB-NH2 (7)] ({Hexanoyl(4ξ-Me)}-[dN][dY][dW][dOrn][Orn]G[dOrn]WTIGS-NH2) | 4 | 16 | 16 | 2 | 2/4 | 16 | >32 | 16 |  |  |
| CC[C@H](C)[C@H](NC(=O)[C@@H](NC(=O)[C@H](Cc1c[nH]c2ccccc12)NC(=O)[C@@H](CCCN)NC(=O)CNC(=O)[C@H](CCCN)NC(=O)[C@@H](CCCN)NC(=O)[C@@H](Cc1c[nH]c2ccccc12)NC(=O)[C@@H](Cc1ccc(O)cc1)NC(=O)[C@@H](CO)NC(=O)CCCCCC(C)C)[C@@H](C)O)C(=O)N[C@@H](CC(N)=O)C(=O)NCC(=O)NCC(N)=O [LL-NH2 (6)] ({Octanoyl(7-Me)}-[dS][dY][dW][dOrn][Orn]G[dOrn]WTINGG-NH2) | 4 | 4 | 8 | 2 | 2/4 | 4 to 8 | >32 | 8 |  |  |
| C=CCOC(=O)NC[C@H](NC(=O)[C@H](Cc1c[nH]c2ccccc12)NC(=O)[C@@H](CCCN)NC(=O)CNC(=O)[C@H](CCCN)NC(=O)[C@@H](CCCN)NC(=O)[C@@H](Cc1c[nH]c2ccccc12)NC(=O)[C@@H](Cc1ccc(O)cc1)NC(=O)[C@@H](CC(N)=O)NC(=O)CCC(C)CC)C(=O)N[C@H](C(=O)NCC(N)=O)[C@@H](C)CC (some centres unmarked) [Δ12LB (Dap[Alloc]9)-NH2 (61)] ({Hexanoyl(4ξ-Me)}-[dN][dY][dW][dOrn][Orn]G[dOrn]W[Dap](Alloc)IG-NH2) | 4 | 4 | 4 |  |  | 2 | >32 | 2 | 4 (≈ 2.63 µM) | 2 to 4 |
| CCC(C)CCC(=O)N[C@H](CC(N)=O)C(=O)N[C@H](Cc1ccc(O)cc1)C(=O)N[C@H](Cc1c[nH]c2ccccc12)C(=O)N[C@H](CCCN)C(=O)N[C@@H](CCCN)C(=O)NCC(=O)N[C@H](CCCN)C(=O)N[C@@H](Cc1c[nH]c2ccccc12)C(=O)N[C@@H](Cc1ccccc1)C(=O)N[C@H](C(=O)NCC(N)=O)[C@@H](C)CC (some centres unmarked) [Δ12LB (Phe9)-NH2 (54)] ({Hexanoyl(4ξ-Me)}-[dN][dY][dW][dOrn][Orn]G[dOrn]WFIG-NH2) | 4 | 2 | 2 to 4 |  |  | 2 to 4 | >32 | 4 | 4 (≈ 2.67 µM) | 2 to 4 |

Source: publication PMC10150354, “Linearization of the Brevicidine and Laterocidine Lipopeptides Yields Analogues That Retain Full Antibacterial Activity” (Journal of Medicinal Chemistry, 2023)
